pIC50: −log10 of the molar value. Like-named read-outs stand apart in the source and are kept apart here.
What was measured:
[1] = test system: NCI-H2009; assay: CellTiter-Glo proliferation and viability assay; format: cell-based; conditions: Homo sapiens
[2] = test system: phospho-MEK and phospho-ERK in A375 xenograft; assay: A375 xenograft single dose pharmacodynamic study; format: in vivo, rat; conditions: two hours post dose, Western Blot
Method: Briefly, 10×10^6 cells (A375) or 5×10^6 cells (HCT-116) in a 1:1 medium and matrigel mix (0.2 mL total volume) are implanted by subcutaneous injection in the hind leg of nude female rats (NIH model No. NIHRNU-M from Taconic). A total of 8 rats in each group are used for the efficacy study, and a total of 3-4 rats in each group are used for a pharmacodynamic study. The Eli Lilly and Company Animal Care and Use Committee approved all the experimental protocols. […] Tumor growth and body weight are monitored over time to evaluate activity and signs of toxicity. Bidimensional measurements of tumors are performed twice a week and tumor volumes are calculated based on mid-axis length and mid-axis width. Tumor volume data are transformed to a log scale to equalize variance across time and treatment groups. The log volume data are analyzed with a two-way repeated measures analysis of variance by time and treatment using the MIXED® procedures in SAS® software (version 8.2). The correlation model for the repeated measures is spatial power. Treated groups are compared to the control group at each time point. The MIXED® procedure is also used separately for each treatment group to calculate adjusted means and standard errors at each time point. […]

[3] = test system: NCI-H2228; assay: CellTiter-Glo proliferation and viability assay; format: cell-based; conditions: Homo sapiens
[4] = test system: NOMO-1; assay: CellTiter-Glo proliferation and viability assay; format: cell-based; conditions: Homo sapiens, read-out: Abs IC50
[5] = test system: Calu-6; assay: CellTiter-Glo proliferation and viability assay; format: cell-based; conditions: Homo sapiens
[6] = test system: CaOV-3; assay: CellTiter-Glo proliferation and viability assay; format: cell-based; conditions: Homo sapiens
[7] = test system: SK-MeI-2 cells harboring N-Ras mutation Q61R, and B-Raf wild type; assay: CellTiter-Glo proliferation and viability assay; format: cell-based; conditions: Homo sapiens; SK-MeI-2, CellTiter-Glo; read-out: cell proliferation and viability IC50
[8] = test system: H9; assay: CellTiter-Glo proliferation and viability assay; format: cell-based; conditions: Homo sapiens
[9] = test system: C3A; assay: CellTiter-Glo proliferation and viability assay; format: cell-based; conditions: Homo sapiens
[10] = test system: Ba/F3 c-Kit V654A; assay: Ba/F3 c-Kit anti-proliferation assay; format: cell-based; conditions: Mus musculus, BaF3, Ba/F3 c-Kit V654A, read-out: Anti-proliferation activities (IC50)
Method: (§1) To further evaluate the test compound, it is tested against c-Kit mutations commonly occurring in melanoma and/or GIST. Ba/F3 cell line (from ATCC) are transfected with wild type (WT) c-Kit, c-Kit L576P (Willmore-Payne et al, Human Pathology, 2005, 36(5), 486; Willmore-Payne et al, Human Pathology, 2006, 37, 520), c-Kit K642E (Willmore et al, Am J Clin Pathol, 2004, 122(2), 206; Monsel et al, Oncogene, 2010, 29, 227), c-Kit T670I (Tamborini et al, Oncogene, 2006, 25, 6140), or c-Kit V654A (Tamborini et al, Oncogene, 2006, 25, 6140), respectively are established by retroviral transfection methods well known and used by those skilled in the art. The mutations are generated by polymerase chain reaction (PCR) mutagenesis and confirmed by automated sequencing of the PCR-amplified c-Kit expression construct. Ba/F3 stable cell lines are generated by transfecting with plasmid DNA. Expression of the appropriate c-Kit mutants is confirmed by Western blot analysis.
(§2) Wild type Ba/F3 cells are generally dependent on IL-3 for growth. After c-Kit transfection, these cells are grown in Ba/F3 ATCC recommended growth medium in the presence of stem cell factor (SCF), the ligand of c-Kit. The anti-proliferation activities of test compounds against these cells are tested in the presence of IL-3 or SCF.

[11] = test system: Ba/F3 c-Kit K642E; assay: Ba/F3 c-Kit anti-proliferation assay; format: cell-based; conditions: Mus musculus, BaF3, Ba/F3 c-Kit K642E, read-out: Anti-proliferation activities (IC50)
Method: as §1, §2

[12] = test system: Ba/F3 c-Kit T670I; assay: Ba/F3 c-Kit anti-proliferation assay; format: cell-based; conditions: Mus musculus, BaF3, Ba/F3 c-Kit T670I, read-out: Anti-proliferation activities (IC50)
Method: as §1, §2

[13] = test system: Ba/F3 c-Kit WT; assay: Ba/F3 c-Kit anti-proliferation assay; format: cell-based; conditions: Mus musculus, BaF3, Ba/F3 c-Kit WT, read-out: Anti-proliferation activities (IC50)
Method: as §1, §2

[14] = test system: Ba/F3 c-Kit L576P; assay: Ba/F3 c-Kit anti-proliferation assay; format: cell-based; conditions: Mus musculus, BaF3, Ba/F3 c-Kit L576P, read-out: Anti-proliferation activities (IC50)
Method: as §1, §2

[15] = test system: HT-29; assay: CellTiter-Glo proliferation and viability assay; format: cell-based; conditions: Homo sapiens
[16] = test system: NCI-H2126; assay: CellTiter-Glo proliferation and viability assay; format: cell-based; conditions: Homo sapiens
[17] = test system: HuH-7; assay: CellTiter-Glo proliferation and viability assay; format: cell-based; conditions: Homo sapiens, read-out: Rel IC50
[18] = test system: P30-OHK; assay: CellTiter-Glo proliferation and viability assay; format: cell-based; conditions: Homo sapiens, read-out: Abs IC50

## CNc1ncc2cc(-c3cc(NC(=O)NCCC(C)(C)C)c(F)cc3C)c(C)nc2n1 [Example 1, 1-(3,3-Dimethylbutyl)-3-(2-fluoro-4-methyl-5-(7-methyl-2-(methylamino)pyrido[2,3-d]pyrimidin-6-yl)phenyl)urea]
[1]; read-out: Abs IC50
  pIC50: 7.92
[1]; read-out: Rel IC50
  pIC50: 8.80
[2]; single dose 25 mg/kg
  phospho-MEK and phospho-ERK activities, PD effect: almost completely eliminated
[2]; single dose 3.125 to 50 mg/kg
  phospho-MEK and phospho-ERK, PD effect: inhibition was observed in all dose groups
[3]; read-out: Abs IC50
  pIC50: < 7.70
[3]; read-out: Rel IC50
  pIC50: 8.93
[4]
  pIC50: 8.58
[5]; read-out: Abs IC50
  pIC50: 9.62
[5]; read-out: Rel IC50
  pIC50: 9.66
[6]; read-out: Abs IC50
  pIC50: 8.02
[6]; read-out: Rel IC50
  pIC50: 8.27
[7]
  pIC50: 6.73
[8]; read-out: Abs IC50
  pIC50: 9.48
[8]; read-out: Rel IC50
  pIC50: 9.72
[9]; read-out: Abs IC50
  pIC50: < 7.70
[9]; read-out: Rel IC50
  pIC50: 9.22
[10]; IL-3
  pIC50: 5.53
[10]; SCF
  pIC50: 7.07
[11]; IL-3
  pIC50: 5.92
[11]; SCF
  pIC50: 7.33
[12]; IL-3
  pIC50: 5.23
[12]; SCF
  pIC50: 6.54
[13]; IL-3
  pIC50: 5.54
[13]; SCF
  pIC50: 7.21
[14]; IL-3
  pIC50: 5.68
[14]; SCF
  pIC50: 6.75
[15]; HT-29, read-out: Abs IC50
  pIC50: < 7.70
[15]; HT-29, read-out: Rel IC50
  pIC50: 10.22
[15]; HT-29, B-Raf V600E, colon, CellTiter-Glo, read-out: IC50
  pIC50: 8.14
[16]; read-out: Abs IC50
  pIC50: < 7.70
[16]; read-out: Rel IC50
  pIC50: < 7.70
[17]
  pIC50: 9.89
[18]
  pIC50: 8.84
